Values quoted from earlier work as cited in article PMC8008885 (Journal of Enzyme Inhibition and Medicinal Chemistry, 2021).

Tested on: HD transgenic mice
Settings: cited from earlier work

Compound	H3K9 trimethylation	SETDB1 gene expression	behaviour and neuropathological phenotype	neuroprotective effects by suppressing elevated SETDB1 and H3K9me3 level
NCCSSCCN [cystamine]	reduced	down-regulates	improved	
COC(=O)[C@@H]1c2cc3c(c(O)c2[C@@H](O[C@@H]2O[C@@H](C)[C@H](OC)[C@@](C)(OC)[C@H]2OC)C[C@]1(C)O)C(=O)c1c(O)cc2c(c1C3=O)O[C@@H]1O[C@@]2(C)[C@H](O)[C@@H](N(C)C)[C@@H]1O [nogalamycin]				improved neuroprotective effects
mithramycin	reduced	down-regulates	improved	
